From PubChem BioAssay (NCI)
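All cell lines were grown in 96-well plates and treated with compound for 48 hours. GI50 = concentration required for 50% inhibition of growth. The concentration for full growth arrest is given as TGI.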

Assays:
Assay in all cases: NCI-60 cell line screen, 48 h; in the data active = GI50 below about 0.43 µM; inactive = the rest
[1] = system: MOLT-4 leukemia
[2] = system: UACC-257 melanoma
[3] = system: HL-60(TB) leukemia
[4] = system: SN12C renal
[5] = system: OVCAR-5 ovarian
[6] = system: HCT-15 colon
[7] = system: BT-549 breast
[8] = system: OVCAR-4 ovarian
[9] = system: SF-539 CNS
[10] = system: SK-OV-3 ovarian
[11] = system: TK-10 renal
[12] = system: NCI-H226 lung
[13] = system: NCI-H460 lung
[14] = system: NCI-H522 lung
[15] = system: UACC-62 melanoma
[16] = system: T-47D breast
[17] = system: SF-295 CNS
[18] = system: U251 CNS
[19] = system: MDA-MB-435
[20] = system: IGROV1 ovarian
[21] = system: HT29 colon
[22] = system: HOP-62 NSCLC
[23] = system: SR leukemia
[24] = system: ACHN renal
[25] = system: UO-31 renal
[26] = system: RPMI-8226 leukemia
[27] = system: M14 melanoma
[28] = system: SNB-75 CNS
[29] = system: RXF 393 renal
[30] = system: 786-0 renal
[31] = system: HOP-92 NSCLC
[32] = system: MDA-MB-231 breast
[33] = system: A498 renal
[34] = system: SW-620 colon
[35] = system: CAKI-1 renal
[36] = system: CCRF-CEM leukemia
[37] = system: SK-MEL-5 melanoma
[38] = system: OVCAR-3 ovarian
[39] = system: HS 578T breast
[40] = system: MCF7 breast
[41] = system: SK-MEL-2 melanoma
[42] = system: PC-3 prostate
[43] = system: NCI/ADR-RES ovarian
[44] = system: MALME-3M melanoma
[45] = system: A549 NSCLC
[46] = system: HCC-2998 colon
[47] = system: KM12 colon
[48] = system: DU-145 prostate
[49] = system: OVCAR-8 ovarian
[50] = system: COLO 205 colon
[51] = system: SK-MEL-28 melanoma
[52] = system: K-562 leukemia
[53] = system: HCT-116 colon
[54] = system: SNB-19 CNS
[55] = system: LOX IMVI melanoma
[56] = system: SF-268 CNS
[57] = system: NCI-H23 lung

Cn1c(=O)c(Oc2ccc(F)cc2F)cc2cnc(NCCS(C)(=O)=O)nc21
inactive: GI50 [1] > 25 µM | GI50 [2] > 25 µM | GI50 [3] > 25 µM | GI50 [4] > 25 µM | GI50 [5] > 25 µM | GI50 [6] > 25 µM | GI50 [7] > 25 µM | GI50 [8] > 25 µM | GI50 [9] > 25 µM | GI50 [10] > 25 µM | GI50 [11] > 25 µM | GI50 [12] > 25 µM | GI50 [13] > 25 µM | GI50 [14] > 25 µM | GI50 [15] > 25 µM | GI50 [16] > 25 µM | GI50 [17] > 25 µM | GI50 [18] > 25 µM | GI50 [19] > 25 µM | GI50 [20] > 25 µM | GI50 [21] > 25 µM | GI50 [22] > 25 µM | GI50 [23] > 25 µM | GI50 [24] > 25 µM | GI50 [25] > 25 µM | GI50 [26] > 25 µM | GI50 [27] > 25 µM | GI50 [28] > 25 µM | GI50 [29] > 25 µM | GI50 [30] > 25 µM | GI50 [31] > 25 µM | GI50 [32] > 25 µM | GI50 [33] > 25 µM | GI50 [34] > 25 µM | GI50 [35] > 25 µM | GI50 [36] > 25 µM | GI50 [37] > 25 µM | GI50 [38] > 25 µM | GI50 [39] > 25 µM | GI50 [40] > 25 µM | GI50 [41] > 25 µM | GI50 [42] > 25 µM | GI50 [43] > 25 µM | GI50 [44] > 25 µM | GI50 [45] > 25 µM | GI50 [46] > 25 µM | GI50 [47] > 25 µM | GI50 [48] > 25 µM | GI50 [49] > 25 µM | GI50 [50] > 25 µM | GI50 [51] > 25 µM | GI50 [52] > 25 µM | GI50 [53] > 25 µM | GI50 [54] > 25 µM | GI50 [55] > 25 µM | GI50 [56] > 25 µM | GI50 [57] > 25 µM
> 25 µM: TGI [1] | TGI [2] | TGI [3] | TGI [4] | TGI [5] | TGI [6] | TGI [7] | TGI [8] | TGI [9] | TGI [10] | TGI [11] | TGI [12] | TGI [13] | TGI [14] | TGI [15] | TGI [16] | TGI [17] | TGI [18] | TGI [19] | TGI [20] | TGI [21] | TGI [22] | TGI [23] | TGI [24] | TGI [25] | TGI [26] | TGI [27] | TGI [28] | TGI [29] | TGI [30] | TGI [31] | TGI [32] | TGI [33] | TGI [34] | TGI [35] | TGI [36] | TGI [37] | TGI [38] | TGI [39] | TGI [40] | TGI [41] | TGI [42] | TGI [43] | TGI [44] | TGI [45] | TGI [46] | TGI [47] | TGI [48] | TGI [49] | TGI [50] | TGI [51] | TGI [52] | TGI [53] | TGI [54] | TGI [55] | TGI [56] | TGI [57]
